Here are results for 24 compounds from ChEMBL document CHEMBL1137838, “Synthesis and structure-activity relationships of andrographolide analogues as novel cytotoxic agents” (2004).

The structures appear in SMILES notation. Where only a bound is given, the exact number is not on record here.

Common to all, as to type: functional
One experiment relates to SW-620. In words: Concentration causing 50% inhibition of cancer cell growth against human colon SW620 cell line.
Another experiment relates to DU-145. Description: Concentration causing 50% inhibition of cancer cell growth against human prostate DU145 cell line.
The next experiment deals with U-251. In words: Concentration causing 50% inhibition of cancer cell growth against human CNS U251 cell line.
In another experiment the test system is SK-OV-3. In words: Concentration causing 50% inhibition of cancer cell growth against human ovarian SKOV3 cell line.
Another experiment concerns NCI-H522. In words: Concentration causing 50% inhibition of cancer cell growth against human lung H522 cell line.
The test system of a further experiment is NCI/ADR-RES. In words: Concentration causing 50% inhibition of cancer cell growth against human breast MCF-7/ADR cell line.
In another experiment the test system is A498. Description: Concentration causing 50% inhibition of cancer cell growth against human renal A498 cell line.

In the case of `CC(=O)OC[C@@]1(C)[C@H]2CC[C@@H](C=O)[C@@H](C/C=C3/C(=O)OC[C@H]3OC(C)=O)[C@]2(C)CC[C@H]1OC(C)=O`, the IG50 with SW-620 came out at 32 µM; in the experiment with DU-145, 12 µM; in the experiment on U-251 it was 62 µM; in the experiment on SK-OV-3, 3 µM; with NCI-H522 it was 34 µM.
In the case of `C=C1CC[C@@H]2[C@](C)(CO)[C@H](O)CC[C@@]2(C)[C@@H]1C/C=C(/C(=O)O)[C@H](O)CO`, the IG50 with SW-620 is over 100 µM; in the experiment on DU-145 it was over 100 µM; with U-251 it was over 100 µM; in the experiment on SK-OV-3 it was over 100 µM; in the experiment on NCI-H522, 80 µM; with NCI/ADR-RES, 30 µM. This compound also gave an IG50 in the experiment with A498 of 4 µM.
In the case of `CCC(=O)OC[C@@]1(C)[C@H]2CC[C@@]3(CO3)[C@@H](C/C=C3/C(=O)OC[C@H]3OC(=O)/C=C/c3ccc(OC)cc3)[C@]2(C)CC[C@H]1OC(=O)CC`, the IG50 with SW-620 worked out at 0.6 µM; in the experiment on DU-145, 2 µM; in the experiment on U-251, 3 µM; in the experiment with SK-OV-3, 2 µM; in the experiment with NCI-H522 it was 4.8 µM; in the experiment with NCI/ADR-RES it was 3 µM. The compound also displayed an IG50 in the experiment on A498 of 3 µM.
For the compound `CC(=O)OC[C@@]1(C)[C@H]2CC[C@@]3(CO3)[C@@H](C/C=C3/C(=O)OC[C@H]3O)[C@]2(C)CC[C@H]1OC(C)=O`, the IG50 with SW-620 is 20 µM; with U-251, 40 µM; with SK-OV-3 it was over 100 µM; in the experiment on NCI/ADR-RES, 30 µM; with A498 it was 20 µM.
For the compound `CC(=O)O[C@@H]1CC[C@]2(C)[C@H](CC[C@@]3(CO3)[C@H]2C/C=C2/C(=O)OC[C@H]2O)[C@]1(C)CO`, the IG50 in the experiment with SW-620 was over 100 µM; in the experiment on DU-145, 50 µM; with U-251, 45 µM; in the experiment with SK-OV-3, 50 µM; with NCI-H522, 60 µM; with NCI/ADR-RES it was 20 µM. In addition, in the experiment on A498, the IG50 was 20 µM.
Consider `CC(C)(C)OC(=O)NCC(=O)O[C@@H]1COC(=O)/C1=C/C[C@@H]1[C@@]2(CC[C@@H]3[C@](C)(CO)[C@H](O)CC[C@]31C)CO2`, for which the IG50 in the experiment on SW-620 was 40 µM; with DU-145, 20 µM; in the experiment on U-251, 40 µM; in the experiment on SK-OV-3 it was 6 µM; in the experiment with NCI-H522 it was over 100 µM; with NCI/ADR-RES it was 7 µM. The IG50 in the experiment on A498 amounted to 5 µM.
For `CCC(=O)OC[C@@]1(C)[C@H]2CC[C@@]3(CO3)[C@@H](C/C=C3/C(=O)OC[C@H]3OC(=O)/C=C/c3ccc(OC)c(OC)c3)[C@]2(C)CC[C@H]1OC(=O)CC`, the IG50 in the experiment with SW-620 worked out at 0.4 µM; with DU-145, 2.5 µM; with U-251, 2 µM; with SK-OV-3, 2.5 µM; with NCI-H522, 7.5 µM; with NCI/ADR-RES it was 1.5 µM. The IG50 in the experiment on A498 is 3.5 µM.
As to `CC(=O)O[C@@H]1COC(=O)/C1=C/C[C@@H]1[C@@]2(CC[C@@H]3[C@](C)(CO)[C@H](O)CC[C@]31C)CO2`, the IG50 in the experiment on SW-620 was 20 µM; in the experiment on DU-145 it was 25 µM; with U-251, 50 µM; in the experiment on SK-OV-3, 5 µM; with NCI-H522 it was 25 µM; in the experiment with NCI/ADR-RES it was 20 µM. Moreover, the IG50 in the experiment on A498 was determined as 7 µM.
In the case of `CC(=O)OC[C@@]1(C)[C@H]2CC[C@@]3(CO3)[C@@H](C/C=C3/C(=O)OC[C@H]3OC(=O)CNC(=O)OC(C)(C)C)[C@]2(C)CC[C@H]1OC(C)=O`, the IG50 with SW-620 stood at 3 µM; with DU-145, 7 µM; in the experiment on U-251, 4 µM; in the experiment on SK-OV-3 it was 8 µM; in the experiment with NCI-H522 it was 4 µM; in the experiment on NCI/ADR-RES, 4 µM. This compound had an IG50 with A498 of 20 µM.
Consider `C[C@]1(CO)[C@H]2CC[C@@]3(CO3)[C@@H](C/C=C3/C(=O)OC[C@H]3O)[C@]2(C)CC[C@H]1O`, for which the IG50 came out at 30 µM with SW-620; 20 µM in the experiment on DU-145; 16 µM in the experiment with U-251; 4 µM in the experiment on SK-OV-3; 30 µM with NCI-H522; 20 µM with NCI/ADR-RES. Moreover, the IG50 in the experiment with A498 was 30 µM.
Regarding `CCC(=O)OC[C@@]1(C)[C@H]2CC[C@@]3(CO3)[C@@H](C/C=C3/C(=O)OC[C@H]3OC(=O)/C=C/c3ccccc3)[C@]2(C)CC[C@H]1OC(=O)CC`, the IG50 in the experiment with SW-620 was determined as 2.5 µM; in the experiment with DU-145, 4 µM; with U-251, 6 µM; in the experiment on SK-OV-3, 10 µM; in the experiment with NCI-H522 it was 20 µM; in the experiment with NCI/ADR-RES, 0.08 µM. For the same compound, the IG50 with A498 was 3 µM.
`CCC(=O)OC[C@@]1(C)[C@H]2CC[C@@]3(CO3)[C@@H](C/C=C3/C(=O)OC[C@H]3OC(=O)CC)[C@]2(C)CC[C@H]1OC(=O)CC`: the IG50 amounted to 2 µM in the experiment on SW-620; 3 µM with DU-145; 3 µM in the experiment on U-251; 1.36 µM in the experiment on SK-OV-3; 3 µM with NCI-H522.
In the case of `CC(=O)O[C@@H]1COC(=O)/C1=C/C[C@@H]1[C@@]2(CC[C@@H]3[C@](C)(CO)[C@H](OC(C)=O)CC[C@]31C)CO2`, the IG50 in the experiment with SW-620 was found to be 55 µM; in the experiment with DU-145, 6.5 µM; in the experiment with U-251, 30 µM; in the experiment with SK-OV-3 it was 2.5 µM; in the experiment with NCI-H522, 30 µM; in the experiment on NCI/ADR-RES, 20 µM. In the experiment with A498, this compound returned an IG50 of 6 µM.
Consider `C=C1CC[C@@H]2[C@](C)(CO)[C@H](O)CC[C@@]2(C)[C@@H]1/C=C/C1=CCOC1=O`, for which the IG50 was over 100 µM in the experiment with SW-620; 2 µM in the experiment on DU-145; 81 µM in the experiment with U-251; over 100 µM in the experiment on NCI-H522; over 100 µM in the experiment on NCI/ADR-RES.
For `C[C@]1(CO)[C@H]2CC[C@@]3(CO3)[C@@H](C/C=C3/C(=O)OC[C@H]3OC(=O)/C=C/c3ccccc3)[C@]2(C)CC[C@H]1O`, the IG50 was 0.5 µM in the experiment on SW-620; 5.5 µM in the experiment with DU-145; 6 µM with U-251; 4 µM in the experiment on SK-OV-3; 6 µM in the experiment on NCI-H522; 2 µM with NCI/ADR-RES. Besides, the IG50 in the experiment with A498 stood at 9 µM.
`CC(=O)OC[C@@]1(C)[C@H]2CCC3=COC(C4=CCOC4=O)C[C@H]3[C@]2(C)CC[C@H]1OC(C)=O` (stereo partly drawn): the IG50 in the experiment on SW-620 came out at 40 µM; in the experiment on DU-145, 40 µM; in the experiment with U-251, 30 µM; with SK-OV-3 it was 40 µM; with NCI-H522, 50 µM; in the experiment with NCI/ADR-RES it was 40 µM.
Take `C=C1CC[C@@H]2[C@](C)(CO)[C@H](O)CC[C@@]2(C)[C@@H]1CCC1C(=O)OC[C@H]1O` (stereo partly drawn): the IG50 is over 100 µM in the experiment on SW-620; 2 µM with DU-145; 85 µM in the experiment with U-251; over 100 µM in the experiment on SK-OV-3; over 100 µM in the experiment with NCI-H522.
As for `CCC(=O)OC[C@@]1(C)[C@H]2CC[C@@]3(CO3)[C@@H](C/C=C3/C(=O)OC[C@H]3OC(=O)/C=C/c3ccc4c(c3)OCO4)[C@]2(C)CC[C@H]1OC(=O)CC`, the IG50 came to 65 µM in the experiment with SW-620; 4 µM in the experiment on DU-145; 35 µM in the experiment on U-251; 0.3 µM with SK-OV-3; 3 µM in the experiment on NCI-H522; 20 µM with NCI/ADR-RES. The IG50 in the experiment with A498 amounted to 6 µM.
In the case of `CCC(=O)OC[C@@]1(C)[C@H]2CC[C@@]3(CO3)[C@@H](C/C=C3/C(=O)OC[C@H]3OC(=O)CNC(=O)OC(C)(C)C)[C@]2(C)CC[C@H]1OC(=O)CC`, the IG50 with SW-620 turned out to be 30 µM; with DU-145, 20 µM; with U-251 it was 20 µM; in the experiment with SK-OV-3, 15 µM; with NCI-H522 it was 4 µM; in the experiment with NCI/ADR-RES it was 15 µM. The compound further registered an IG50 with A498 of 4 µM.
As for `CC(=O)OC[C@@]1(C)[C@H]2CC[C@@]3(CO3)[C@@H](C/C=C3/C(=O)OC[C@H]3OC(C)=O)[C@]2(C)CC[C@H]1OC(C)=O`, the IG50 in the experiment with SW-620 was 1 µM; in the experiment on DU-145, 15 µM; with U-251 it was 2.5 µM; in the experiment with SK-OV-3, 25 µM; in the experiment on NCI-H522, 15 µM; in the experiment on NCI/ADR-RES, 5 µM. For the same compound, the IG50 in the experiment with A498 came to 0.25 µM.
For the compound `CCC(=O)O[C@@H]1COC(=O)/C1=C/C[C@@H]1[C@@]2(CC[C@@H]3[C@](C)(CO)[C@H](OC(=O)CC)CC[C@]31C)CO2`, the IG50 with SW-620 was 7 µM; in the experiment on DU-145, 20 µM; in the experiment on U-251, 35 µM; in the experiment on SK-OV-3, 3 µM; with NCI-H522, 40 µM; in the experiment with NCI/ADR-RES it was 30 µM. Moreover, the IG50 in the experiment on A498 amounted to 40 µM.
On to `CC(=O)OC[C@@]1(C)[C@H]2CC[C@@H](CO)[C@@H](C/C=C3/C(=O)OC[C@H]3OC(C)=O)[C@]2(C)CC[C@H]1OC(C)=O`, for which the IG50 in the experiment on SW-620 stood at 7 µM; in the experiment with DU-145, 2 µM; with U-251 it was 19 µM; with SK-OV-3, 3 µM; with NCI-H522, 19 µM.
Turning to `C=C1CC[C@@H]2[C@](C)(CO)[C@H](O)CC[C@@]2(C)[C@@H]1C/C=C1/C(=O)OC[C@H]1O` [ANDROGRAPHOLIDE], the IG50 in the experiment with SW-620 is 10 µM; with DU-145, 20 µM; with U-251, 3 µM; with SK-OV-3, 15 µM; with NCI-H522, 17 µM; with NCI/ADR-RES it was 15 µM. The compound further registered an IG50 in the experiment on A498 of 30 µM.
Take `C=C1CC[C@@H]2[C@](C)(CO)[C@H](O)CC[C@@]2(C)[C@@H]1CCC1=CCOC1=O` [DEOXYANDROGRAPHOLIDE]: the IG50 is 54 µM in the experiment with SW-620; 5 µM in the experiment on DU-145; over 100 µM in the experiment with U-251; 0.18 µM in the experiment on SK-OV-3; over 100 µM with NCI-H522.
